Where “and” joins values, the source holds several entries; their conditions need not be identical. Equal entries are not always repeated.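 Interpolation was linear, between the two tested concentrations surrounding the appropriate level; five concentrations were tested over 48 hours in 96-well plates. GI50 = concentration required for 50% inhibition of growth. TGI denotes the concentration required for complete inhibition of growth.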
Assays:
Assay in all cases: NCI tumour cell line growth inhibition, 48 h
CCRF-CEM leukemia = system: CCRF-CEM leukemia
DLD-1 colon = system: DLD-1 colon
HL-60(TB) leukemia = system: HL-60(TB) leukemia
HOP-92 NSCLC = system: HOP-92 NSCLC
LXFL 529 NSCLC = system: LXFL 529 NSCLC
SF-295 CNS = system: SF-295 CNS
SK-MEL-2 melanoma = system: SK-MEL-2 melanoma
U251 CNS = system: U251 CNS
UACC-257 melanoma = system: UACC-257 melanoma
PC-3 prostate = system: PC-3 prostate

Row | SMILES | TGI (CCRF-CEM leukemia) [µM] | TGI (DLD-1 colon) [µM] | TGI (HL-60(TB) leukemia) [µM] | TGI (HOP-92 NSCLC) [µM] | TGI (LXFL 529 NSCLC) [µM] | TGI (SF-295 CNS) [µM] | TGI (SK-MEL-2 melanoma) | TGI (U251 CNS) | TGI (UACC-257 melanoma) | GI50 (CCRF-CEM leukemia) [µM] | GI50 (DLD-1 colon) [µM] | GI50 (HL-60(TB) leukemia) [µM] | GI50 (HOP-92 NSCLC) [µM] | GI50 (LXFL 529 NSCLC) [µM] | GI50 (SF-295 CNS) [µM] | GI50 (SK-MEL-2 melanoma) [µM] | GI50 (U251 CNS) [µM] | GI50 (UACC-257 melanoma) [µM] | TGI (PC-3 prostate) [µM]
1 | Cc1ccc(/C=N/NS(=O)(=O)c2ccccc2)cc1C | > 100 | > 100 | > 100 | > 100 | > 100 | > 100 | > 100 µM | > 100 µM | > 100 µM |  |  |  |  |  |  |  |  |  | 
2 | C1C[OH+]CCNCC[OH+]CC[OH+]CCN1.N.[Cl-].[Pt+4] | > 100 | > 100 | > 100 | > 100 | > 100 | > 100 | > 100 µM | > 100 µM | > 100 µM | 53.6 | 46.1 | > 100 | 35.8 | > 100 | 49 | 47.2 | > 100 | 78.8 | 
3 | CCCCCCCC(=O)OCC1OC(n2cc(F)c(=O)[nH]c2=O)C(N)C(O)C1O (centres undefined) | > 100 | > 100 | > 100 | > 100 | > 100 | > 100 | > 100 µM | > 100 µM | > 100 µM |  |  |  |  |  |  |  |  |  | 
4 | CCC[CH2][Sn]1([CH2]CCC)[O]CC[S]1 | 0.814 | 1.73 | 1.22 | 2.19 | 0.579 | 2.76 | 1.01 µM | 1.64 µM | 2.04 µM | 0.177 | 0.47 | 0.268 | 0.656 | 0.134 | 1.42 | 0.298 | 0.564 | 0.679 | 
5 | CC[O-].CC[O-].O=C([CH-]C(=O)c1ccccc1)CCCCCCC(=O)[CH-]C(=O)c1ccccc1.[Ti+4] | > 100 | > 100 | > 100 | > 100 | > 100 | > 100 | > 100 µM | > 100 µM | > 100 µM | > 100 | > 100 | > 100 | > 100 | > 100 | > 100 | > 100 | > 100 | > 100 | 
6 | CC1OC(CC(=O)O)Cc2c1c(O)c1c(O)cc(-c3cc(=O)c4c(=O)c5c(c(=O)c=4c3=O)CC(CC(=O)O)OC5C)c(O)c1c2O (centres undefined) | > 48.2 | 26.4 | > 49.1 | 41.3 | 22.8 | > 100 | 48.2 µM and 62.5 µM | > 74 µM and 61 µM | 26.9 µM and 66.9 µM |  |  |  |  |  | 77.3 | 27.7 | 26.1 | 21.8 | 64.3
7 | N#CC(C(=O)CCC(=O)Nc1cccc(C(F)(F)F)c1)c1ccccc1 (centres undefined) | > 100 | > 100 | > 100 | > 100 | > 100 | > 100 | > 100 µM | > 100 µM | > 100 µM |  |  |  |  |  |  |  |  |  | 
8 | COc1ccccc1NC(=O)C1=C(C)NC(C)=C(C(=O)Nc2ccccc2OC)C1c1ccccc1Cl | > 100 | > 100 | > 100 | > 100 | > 100 | > 100 | > 100 µM | > 100 µM | > 100 µM |  |  |  |  |  |  |  |  |  | 
